The text below walks through data of patent US11332464B2, “Inhibitors of lysine gingipain” (priority 2014, dated 2022).

Experiment [1] concerns differentiated SH-SY5Y neuroblastoma cells. Description: Gingipain-induced death of differentiated SH-SY5Y cells. In kind it is cell-based. Conditions: 100 nM Kgp and/or RgpB for 24 hours. How it is done:
SH-SY5Y neuroblastoma cells were cultured and differentiated in the presence of 5 uM retinoic acid based on established methods [Saberi S., et al. Cell Mol Neurobiol 2013. 33: 747-751]. Differentiation into neuronal cells was verified by observation of neurite outgrowth. The differentiated cells were exposed to 100 nM Kgp and/or RgpB for 24 hours, in the presence or absence of Kgp inhibitors. Results were recorded using a digital microscope camera (FIG. 1C, FIG. 2C). Gingipains are toxic to cells while COR compounds prevent the cytotoxicity.

Experiment [2] concerns the target Kgp (Porphyromonas gingivalis, UniProt P72197). Nature of the experiment: Lysine gingipain (Kgp) fluorogenic inhibition assay. Format: biochemical. How it is done:
The capacities of compounds of the present invention to inhibit the activity of lysine gingipain were measured in a fluorogenic assay similar to those described in Barret Biochemical Journal. 1980, 187(3), 909. The specific assay conditions were as follows. Buffer: pH=7.5, 100 mM Tris-HCl, 75 mM NaCl, 2.5 mM CaCl2, 10 mM cysteine, 1% DMSO after all additions. Protein: 0.1 nM Kgp, isolated from culture of Porphyromonas gingivalis, as described in Pike et al. J. Biol. Chem. 1994, 269(1), 406, and Potempa and Nguyen. Current Protocols in Protein Science. 2007, 21.20.1-21.20.27. Fluorogenic substrate: 10 uM Z-His-Glu-Lys-MCA. Time=90 minutes. Temperature=37° C. Each compound: 10 concentrations, starting at either 100 uM or 100 nM, with lower concentrations generated by serial 3-fold dilutions. By testing a range of concentrations for each compound, the concentration required to inhibit the activity of lysine gingipain by 50% (the “IC50”) was determined. Under the described assay conditions, signal-to-noise was excellent, and Z factor was greater than 0.6.

For experiment [3], the system named is SHSY5Y cells. Nature of the experiment: P. gingivalis-induced toxicity in SHSY5Y cells. In kind it is cell-based. Conditions: in vitro, compared to moxifloxacin.
The mark [4] stands for this setting: Kgp IC50 average, 0.1 nM Kgp, 10 uM Z-His-Glu-Lys-MCA, 90 minutes, 37° C.

Where “and” joins values, the source holds several entries; their conditions need not be identical. Identical values can stand only once. Entries after “also recorded” stand apart in the source; their conditions may differ. Where only a bound is given, the exact number is not on record here.

One may read the IC50 as the concentration at which inhibition is half-maximal. A higher IC50 goes with lower potency. On to `NCCCC[C@H](NC(=O)c1ccccc1)C(=O)c1nc2ccccc2s1` [Compound 1, N-[(1S)-5-amino-1-(1,3-benzothiazole-2-carbonyl)pentyl]benzamide], for which the “prevention of gingipain-induced death of differentiated SHSY-5Y cells” value (from here on “prevention … of differentiated SHSY-5Y cells”) in experiment [1] was “effective at preventing cell death; also recorded: prevents gingipain-induced death”. Besides, the IC50 in experiment [2] (setting [4]) was 50 to 100 nM and 25 to 50 nM. Take `NCCCC[C@H](NC(=O)C1CCCCC1)C(=O)c1nc2ccccc2s1` [Compound 2, N-[(1S)-5-amino-1-(1,3-benzothiazole-2-carbonyl)pentyl]cyclohexanecarboxamide]: in experiment [1], the “prevention … of differentiated SHSY-5Y cells” value was “effective at preventing cell death; also recorded: more effective”. The IC50 in experiment [2] (Kgp IC50, figure legend) is 1 to 10 nM; in experiment [2] (setting [4]), 1 to 10 nM and 10 to 25 nM.

Consider `NCCCC[C@H](NC(=O)[C@H]1CCCN(C(=O)CCc2ccccc2)C1)C(=O)c1nc2ccccc2s1` [Compound 3, (3S)—N-[(1S)-5-amino-1-(1,3-benzothiazole-2-carbonyl)pentyl]-1-(3-phenylpropanoyl)piperidine-3-carboxamide], for which, in experiment [1], the “prevention … of differentiated SHSY-5Y cells” value is recorded as “does not”. Moreover, the IC50 was 10 to 25 nM in experiment [2] (Kgp IC50, figure legend) and 10 to 25 nM in experiment [2] (setting [4]). For `NCCCC[C@H](NC(=O)[C@@H]1CCCN(C(=O)CCc2ccccc2)C1)C(=O)c1nc2ccccc2s1` [Compound 4, (3R)—N-[(1S)-5-amino-1-(1,3-benzothiazole-2-carbonyl)pentyl]-1-(3-phenylpropanoyl)piperidine-3-carboxamide], the “prevention … of differentiated SHSY-5Y cells” value in experiment [1] was “prevents gingipain-induced death”; in experiment [1] (listed as 2-(N—[N-(3-phenylpropanoyl)-(R)-nipecotinyl]-(R)-lysinyl)-benzothiazole) it was “effective at preventing cell death”. Moreover, the IC50 in experiment [2] (Kgp IC50, figure legend) is 1 to 10 nM; in experiment [2] (setting [4]) it was 1 to 10 nM.

Compound `CC(=O)N1CCOC(C(=O)N[C@@H](CCCCN)C(=O)c2nc3ccccc3s2)C1` (stereo partly drawn) [Compound 29, 4-acetyl-N-[(1S)-5-amino-1-(1,3-benzothiazole-2-carbonyl)pentyl]morpholine-2-carboxamide] yielded an IC50 in experiment [2] (setting [4]) of 10 to 25 nM. For the compound `NCCCC[C@H](NC(=O)c1cccnc1)C(=O)c1nc2ccccc2s1` [Compound 30, N-[(1S)-5-amino-1-(1,3-benzothiazole-2-carbonyl)pentyl]pyridine-3-carboxamide], the IC50 in experiment [2] (setting [4]) lay in the range of 25 to 50 nM. For `NCCCC[C@H](NC(=O)C1CCCc2ccccc21)C(=O)c1nc2ccccc2s1` (stereo partly drawn) [Compound 31, N-[(1S)-5-amino-1-(1,3-benzothiazole-2-carbonyl)pentyl]tetralin-1-carboxamide], in experiment [2] (setting [4]), the IC50 is 10 to 25 nM. On the same count and under the same terms, as for `NCCCC[C@H](NC(=O)C1CCc2ccccc2C1)C(=O)c1nc2ccccc2s1` (stereo partly drawn) [Compound 32, N-[(1S)-5-amino-1-(1,3-benzothiazole-2-carbonyl)pentyl]tetralin-2-carboxamide], the figure is 1 to 10 nM. On the same count and under the same terms, next, `CC1(C(=O)N[C@@H](CCCCN)C(=O)c2nc3ccccc3s2)CCCCC1` [Compound 33, N-[(1S)-5-amino-1-(1,3-benzothiazole-2-carbonyl)pentyl]-1-methyl-cyclohexanecarboxamide]: 1 to 10 nM.

In experiment [2] (setting [4]), `NCCCC[C@H](NC(=O)c1cncs1)C(=O)c1nc2ccccc2s1` [Compound 38, N-[(1S)-5-amino-1-(1,3-benzothiazole-2-carbonyl)pentyl]thiazole-5-carboxamide] had an IC50 of 10 to 25 nM. Compound `NCCCC[C@H](NC(=O)c1nccs1)C(=O)c1nc2ccccc2s1` [Compound 39, N-[(1S)-5-amino-1-(1,3-benzothiazole-2-carbonyl)pentyl]thiazole-2-carboxamide] displayed an IC50 in experiment [2] (setting [4]) of 50 to 100 nM. On the same count and under the same terms, next, `NCCCC[C@H](NC(=O)c1cccc(=O)[nH]1)C(=O)c1nc2ccccc2s1` [Compound 40, N-[(1S)-5-amino-1-(1,3-benzothiazole-2-carbonyl)pentyl]-6-oxo-1H-pyridine-2-carboxamide]: 25 to 50 nM; `COC1(C(=O)N[C@@H](CCCCN)C(=O)c2nc3ccccc3s2)CCCCC1` [Compound 41, (S)—N-(6-amino-1-(benzo[d]thiazol-2-yl)-1-oxohexan-2-yl)-1-methoxycyclohexanecarboxamide]: 10 to 25 nM. Still for that read-out and setting: next, `NCCCC[C@H](NC(=O)C1CCCC1)C(=O)c1nccs1` [Compound 42, N-[(1S)-5-amino-1-(thiazole-2-carbonyl)pentyl]cyclopentanecarboxamide]: 50 to 100 nM.

Consider `NCCCC[C@H](NC(=O)C1CCCC1)C(=O)COc1c(F)c(F)cc(F)c1F` [Compound 43, N-[(1S)-5-amino-1-[2-(2,3,5,6-tetrafluorophenoxy)acetyl]pentyl]cyclo-pentanecarboxamide], for which, in experiment [3], the “protection of SHSY5Y cells from P. gingivalis-induced toxicity” value is reported as “protects SHSY5Y cells”. For the same compound, the IC50 in experiment [2] (setting [4]) was under 1 nM. The “Kgp IC50 (in words)” value in experiment [2] (irreversible covalent inhibitor) is “sub-nanomolar”.

For the compound `NCCCC[C@H](NC(=O)C1CCCC1)C(=O)c1ccccn1` [Compound 44, N-[(1S)-5-amino-1-(pyridine-2-carbonyl)pentyl]cyclopentanecarboxamide], in experiment [2] (setting [4]), the IC50 was over 250 nM.
